{"source": "paper PMC7782785", "about": "“Outer-membrane-acting peptides and lipid II-targeting antibiotics cooperatively kill Gram-negative pathogens” (Communications Biology, 2021)", "key": {"HEK-293 cells": {"test_system": "HEK-293 cells", "experiment": "Cytotoxicity, cell viability (CellTiter-Glo)", "conditions": "for Cell viability (% of control): HEK-293, CellTiter-Glo"}, "P. aeruginosa PA14": {"test_system": "P. aeruginosa PA14", "format": "cell-based", "conditions": "checkerboard", "protocol": "(§1) For the synergy test, standard checkerboard broth microdilution assays were conducted to test the synergistic effect of combined antimicrobials using the same condition as before[51],[56]. […] The initial concentration of both peptides was their individual MIC. 50 µL fresh bacterial suspension prepared as above was added to the wells already containing the antimicrobial compound mixture to achieve 100 µL final volume per well.\n(§2) The fractional inhibitory concentration (FIC) indices[57] were calculated using the formula FICI = FICa + FICb = MICac/MICa + MICbc/MICb, to determine whether the combination is additive, synergistic or antagonistic[51],[57]. The MICa and MICb is the MIC of compound A or B alone, respectively. MICac is the MIC of compound A in combination with compound B and MICbc is the MIC of compound B when it was combined with compound A. The FIC corresponds to the MIC of a compound in combination with the other compound, divided by the MIC of the compound alone. FICa is FIC of compound A while FICb is FIC of compound B. The FICI was interpreted according to EUCAST[58] as follows: synergistic, FICI ≤ 0.5; additive,0.5 < FICI ≤ 1; indifferent, 1 < FICI < 2; antagonistic, FICI ≥ 2."}, "[1]": {"test_system": "K. pneumoniae ATCC BAA-2524", "format": "cell-based", "conditions": "checkerboard", "protocol": "as §1, §2"}, "A. baumannii ATCC 17978": {"test_system": "A. baumannii ATCC 17978", "format": "cell-based", "conditions": "checkerboard", "protocol": "as §1, §2"}, "A. baumannii B2026": {"test_system": "A. baumannii B2026", "format": "cell-based", "conditions": "checkerboard", "protocol": "as §1, §2"}, "K. pneumoniae B1945": {"test_system": "K. pneumoniae B1945", "format": "cell-based", "conditions": "checkerboard", "protocol": "as §1, §2"}, "E. coli ATCC 25922": {"test_system": "E. coli ATCC 25922", "format": "cell-based", "conditions": "checkerboard", "protocol": "as §1, §2"}, "P. aeruginosa ATCC 27853": {"test_system": "P. aeruginosa ATCC 27853", "format": "cell-based", "conditions": "checkerboard", "protocol": "as §1, §2"}, "[2]": {"test_system": "A. baumannii ATCC BAA-1605", "format": "cell-based", "conditions": "checkerboard", "protocol": "as §1, §2"}, "E. coli B1927": {"test_system": "E. coli B1927", "format": "cell-based", "conditions": "checkerboard", "protocol": "as §1, §2"}, "P. aeruginosa B1954": {"test_system": "P. aeruginosa B1954", "format": "cell-based", "conditions": "checkerboard", "protocol": "as §1, §2"}, "E. coli ATCC BAA-2452": {"test_system": "E. coli ATCC BAA-2452", "format": "cell-based", "conditions": "checkerboard", "protocol": "as §1, §2"}, "[3]": {"test_system": "P. aeruginosa ATCC BAA-2108", "format": "cell-based", "conditions": "checkerboard", "protocol": "as §1, §2"}, "A. baumannii LMG 01041": {"test_system": "A. baumannii LMG 01041", "experiment": "microbe, parasite or virus in culture", "conditions": "Acinetobacter baumannii, LMG01041", "protocol": "(§3) MIC tests were performed in triplicate by liquid growth inhibition microdilution assays in sterile polypropylene microtiter plates according to the Clinical and Laboratory Standards Institute (CLSI) guideline for bacteria that grow aerobically. Briefly, the indicator strains were first streaked on the appropriate agar plate, and then single colonies were picked and incubated overnight in liquid broth. The final inoculum of bacteria was 5*10^5 CFU/mL prepared in CAMHB (cationic adjusted Mueller–Hinton broth, Sigma-Aldrich) or CAMHB plus 5% of lysed horse blood (TCS Biosciences, Buckingham, UK) in the case of S. pneumoniae. The antimicrobials were 2-fold serially diluted and 50 µL diluted bacterial suspension was added to each well to make the final volume 100 µL. The microtiter plates and the count plates were incubated at 37 °C for 16–20 h without shaking. Growth inhibition was assessed by measuring the OD600 using a microplate reader (Tecan Infinity F200). The lowest concentration of the antimicrobials that inhibits visible growth of the indicator strain is identified as the MIC value.\n(§4) The condition for the tests and the analysis of the plates were performed as described above for the MIC tests."}, "P. aeruginosa LMG 6395": {"test_system": "P. aeruginosa LMG 6395", "experiment": "microbe, parasite or virus in culture", "conditions": "Pseudomonas aeruginosa, LMG6395", "protocol": "as §3, §4"}, "E. coli LMG 15862": {"test_system": "E. coli LMG 15862", "experiment": "microbe, parasite or virus in culture", "conditions": "Escherichia coli, LMG15862", "protocol": "as §3, §4"}, "K. pneumoniae LMG 20218 [4]": {"test_system": "K. pneumoniae LMG 20218", "experiment": "microbe, parasite or virus in culture", "conditions": "Klebsiella pneumoniae, LMG20218", "protocol": "as §3, §4"}, "E. aerogenes LMG 02094": {"test_system": "E. aerogenes LMG 02094", "experiment": "microbe, parasite or virus in culture", "conditions": "Klebsiella aerogenes, LMG02094", "protocol": "as §3, §4"}, "[5]": {"test_system": "five Gram-negative strains", "experiment": "Bactericidal effect testing", "format": "cell-based", "conditions": "10-fold MIC (alone or in combination), CAMHB, 37 °C, 3 h, plating on LB agar; no colonies of any of the five strains", "protocol": "After that, 50 µL of a 10^3-fold diluted sample were plated on LB agar[59]."}, "K. pneumoniae LMG 20218 [6]": {"test_system": "K. pneumoniae LMG 20218", "experiment": "Antimicrobial activity in blood (ex vivo bacteremia model)", "format": "cell-based", "conditions": "human blood, 10^8 CFU/mL inoculum, 37 °C, alone or (combination) with 4 µM D-11, triplicate", "protocol": "Briefly, blood from healthy donors was obtained from Sanquin (certified Dutch organization responsible for meeting the need in healthcare for blood and blood products, https://www.sanquin.nl/) and infected with 10^8 CFU/mL of K. pneumoniae LMG 20218. […] At 1, 2, 4, and 6 h 100 µL samples were taken from each one of the tubes and decimal serially diluted in PBS. Drops of 10 µL of each one of the dilutions were spotted on LB agar medium to follow the development of the infection. The experiment was performed in triplicate. Non-infected blood, infected blood, and blood plus peptide were used as a control."}}, "data": [{"smiles": "CN[C@H](CC(C)C)C(=O)N[C@H]1C(=O)N[C@@H](CC(N)=O)C(=O)N[C@H]2C(=O)N[C@H]3C(=O)N[C@H](C(=O)N[C@H](C(=O)O)c4cc(O)cc(O)c4-c4cc3ccc4O)[C@H](O)c3ccc(c(Cl)c3)Oc3cc2cc(c3O[C@@H]2O[C@H](CO)[C@@H](O)[C@H](O)[C@H]2O[C@H]2C[C@](C)(N)[C@H](O)[C@H](C)O2)Oc2ccc(cc2Cl)[C@H]1O", "note": "[Vancomycin]", "values": [{"measurement": "Cell viability (% of control)", "setting": "HEK-293 cells; 22 µM (22/22 µM for the combination), replicate 1", "result": "96 % of control"}, {"measurement": "Cell viability (% of control)", "setting": "HEK-293 cells; 22 µM (22/22 µM for the combination), replicate 2", "result": "107 % of control"}, {"measurement": "Cell viability (% of control)", "setting": "HEK-293 cells; 22 µM (22/22 µM for the combination), replicate 3", "result": "113 % of control"}, {"measurement": "Cell viability (% of control)", "setting": "HEK-293 cells; 44 µM (44/44 µM for the combination), replicate 1", "result": "110 % of control"}, {"measurement": "Cell viability (% of control)", "setting": "HEK-293 cells; 44 µM (44/44 µM for the combination), replicate 2", "result": "102 % of control"}, {"measurement": "Cell viability (% of control)", "setting": "HEK-293 cells; 44 µM (44/44 µM for the combination), replicate 3", "result": "114 % of control"}, {"measurement": "Cell viability (% of control)", "setting": "HEK-293 cells; 88 µM (88/88 µM for the combination), replicate 1", "result": "103 % of control"}, {"measurement": "Cell viability (% of control)", "setting": "HEK-293 cells; 88 µM (88/88 µM for the combination), replicate 3", "result": "114 % of control"}, {"measurement": "effect on viability of HEK-293 cells", "setting": "HEK-293 cells; all the concentrations tested (up to 88 µM)", "result": "did not affect the viability"}, {"measurement": "MICAB: MIC of vancomycin in combination with D-11 at the MICAC concentration", "setting": "P. aeruginosa PA14", "result": 32, "unit": "µM"}, {"measurement": "MICAB: MIC of vancomycin in combination with D-11 at the MICAC concentration", "setting": "[1]", "result": 11.04, "unit": "µM"}, {"measurement": "MICAB: MIC of vancomycin in combination with D-11 at the MICAC concentration", "setting": "A. baumannii ATCC 17978", "result": 5.52, "unit": "µM"}, {"measurement": "MICAB: MIC of vancomycin in combination with D-11 at the MICAC concentration", "setting": "A. baumannii B2026", "result": 2.76, "unit": "µM"}, {"measurement": "MICAB: MIC of vancomycin in combination with D-11 at the MICAC concentration", "setting": "K. pneumoniae B1945", "result": 11.04, "unit": "µM"}, {"measurement": "MICAB: MIC of vancomycin in combination with D-11 at the MICAC concentration", "setting": "E. coli ATCC 25922", "result": 5.52, "unit": "µM"}, {"measurement": "MICAB: MIC of vancomycin in combination with D-11 at the MICAC concentration", "setting": "P. aeruginosa ATCC 27853", "result": 11.04, "unit": "µM"}, {"measurement": "MICAB: MIC of vancomycin in combination with D-11 at the MICAC concentration", "setting": "[2]", "result": 2.76, "unit": "µM"}, {"measurement": "MICAB: MIC of vancomycin in combination with D-11 at the MICAC concentration", "setting": "E. coli B1927", "result": 5.52, "unit": "µM"}, {"measurement": "MICAB: MIC of vancomycin in combination with D-11 at the MICAC concentration", "setting": "P. aeruginosa B1954", "result": 44.15, "unit": "µM"}, {"measurement": "MICAB: MIC of vancomycin in combination with D-11 at the MICAC concentration", "setting": "E. coli ATCC BAA-2452", "result": 2.76, "unit": "µM"}, {"measurement": "MICAB: MIC of vancomycin in combination with D-11 at the MICAC concentration", "setting": "[3]", "result": 44.15, "unit": "µM"}, {"measurement": "MIC", "setting": "A. baumannii LMG 01041", "result": 32, "unit": "µM"}, {"measurement": "MIC", "setting": "P. aeruginosa LMG 6395", "result": 128, "unit": "µM"}, {"measurement": "MIC", "setting": "E. coli LMG 15862", "result": 64, "unit": "µM"}, {"measurement": "MIC", "setting": "K. pneumoniae LMG 20218 [4]", "result": 128, "unit": "µM"}, {"measurement": "MIC", "setting": "E. aerogenes LMG 02094", "result": 192, "unit": "µM"}, {"measurement": "bactericidal effect", "setting": "[5]", "result": "bactericidal"}, {"measurement": "bacterial count in infected whole blood after 6 h", "setting": "K. pneumoniae LMG 20218 [6]; vancomycin 2 µM", "result": "10^12 CFU/mL"}, {"measurement": "bacterial count in infected whole blood after 6 h", "setting": "K. pneumoniae LMG 20218 [6]; vancomycin 4 µM", "result": "10^12 CFU/mL"}, {"measurement": "bacterial count in infected whole blood after 6 h", "setting": "K. pneumoniae LMG 20218 [6]; vancomycin 8 µM", "result": "10^12 CFU/mL"}, {"measurement": "bacterial count in infected whole blood after 6 h", "setting": "K. pneumoniae LMG 20218 [6]; vancomycin 16 µM", "result": "10^10 CFU/mL"}]}]}
